Test results taken from the NIST ThermoML archive (doi:10.1016/j.fluid.2016.05.024).

Assay: mn = molality of the nth substance listed, in mol/kg
Details: 87 kPa, Liquid, Vibrating tube method

CCn1cc[n+](C)c1.O=S(=O)([O-])O [1-ethyl-3-methylimidazolium hydrogen sulfate] + O
mass density [kg/m3]
Details	m1 = 0.0528	m1 = 0.1003	m1 = 0.1503	m1 = 0.2034	m1 = 0.253	m1 = 0.303	m1 = 0.3548	m1 = 0.4046	m1 = 0.453	m1 = 0.5055
293.15 K	1000.86	1003.08	1005.3	1007.57	1009.63	1011.67	1013.72	1015.68	1017.53	1019.54
298.15 K	999.65	1001.82	1003.99	1006.22	1008.23	1010.23	1012.24	1014.17	1016	1017.98
303.15 K	998.2	1000.33	1002.46	1004.64	1006.63	1008.6	1010.58	1012.47	1014.26	1016.21
308.15 K	996.54	998.63	1000.73	1002.87	1004.82	1006.76	1008.7	1010.58	1012.34	1014.25
313.15 K	994.68	996.73	998.8	1000.91	1002.83	1004.74	1006.66	1008.5	1010.24	1012.13

CCn1cc[n+](C)c1.[Cl-] [1-ethyl-3-methylimidazolium chloride] + O
mass density [kg/m3]
Details	m1 = 0.0532	m1 = 0.1024	m1 = 0.1528	m1 = 0.2049	m1 = 0.2529	m1 = 0.3082	m1 = 0.3571	m1 = 0.4077	m1 = 0.459	m1 = 0.5026
293.15 K	998.82	999.41	1000.01	1000.63	1001.2	1001.84	1002.41	1002.99	1003.56	1004.05
298.15 K	997.66	998.23	998.82	999.43	999.98	1000.61	1001.17	1001.73	1002.29	1002.77
303.15 K	996.25	996.81	997.39	997.98	998.52	999.14	999.68	1000.24	1000.79	1001.26
308.15 K	994.62	995.17	995.74	996.32	996.85	997.46	997.99	998.53	999.08	999.54
313.15 K	992.79	993.34	993.9	994.48	995.01	995.61	996.13	996.67	997.21	997.67
